Each structure is given as a SMILES string. Read-outs that look alike come from different tables or passages of the source.

For orientation: Cmax means the peak of the concentration-time curve. In general, Tmax refers to the time at which the peak concentration occurs.

Data set [1] is described as follows: Pharmacokinetic study in rats after oral administration of Z. nitidum decoction (HPLC-MS/MS). Format: in vivo, Sprague–Dawley rats. The following applies: for AUC(0-t) / AUC(0-inf) / Cmax / half-life / Tmax: Sprague-Dawley. On the procedure:
The HPLC analysis performed on a Surveyor plus HPLC system (Thermo Fisher Scientific, Waltham, MA, USA). The separation was executed by a Thermo Accucore aq C18 column (100 × 2.1 mm, 2.6 μm) (Thermo Fisher Scientific, Waltham, MA, USA) maintained at 30 °C. The mobile phase consisted of Solvent A (0.1% formic acid solution) and Solvent B (0.1% formic acid acetonitrile). The flow rate was 0.3 mL/min. The gradient program was as follows: 5–10% B at 0–5 min; 10–100% B at 5–15 min; 100–5% B at 15–15.1 min; 5% B at 15–20 min.
MS data were achieved on a triple-quadrupole mass spectrometer: TSQ Quantum Access (Thermo Fisher Scientific, Waltham, MA, USA) with electrospray ionization (ESI) source in positive mode. The instrument parameters were as follows: spray voltage at 3000 V, sheath gas and auxiliary gas with a flow of 30 and 5 arbitrary units, capillary temperature at 350 °C, collision gas pressure at 1.0 mTorr, skimmer offset at 2 V. The selected reaction monitoring (SRM) transitions used for MS analysis were as follows: m/z 342→297 for magnoflorine, 370→188 for α-allocryptopine, 260→227 for skimmianine, 356→192 for IS; the collision energies at 15 eV for magnoflorine, 30 eV for α-allocryptopine, skimmianine and IS. The data acquisition and processing was performed with Xcalibur 2.0 software (Thermo Fisher Scientific, Waltham, MA, USA).
100 μL plasma sample, 10 μL IS solution (200 ng/mL) and 300 μL acetonitrile were added to a 1.5 mL eppendorf tube and vortex-mixed for 5 min, then centrifuged at 13,000 (15,493× g) rpm for 10 min. The supernatant was transferred into another eppendorf tube and evaporated to dryness at 35 °C in vacuum using SpeedVac Concentration ((RVC 2-18, Christ). The residue was reconstituted in 100 μL acetonitrile and water (50:50, v/v) and centrifuged at 13,000 rpm (15,493× g) for 15 min.
For pharmacokinetic study, six rats were orally administered Z. nitidum decoction at a dose of 5.4 mL kg^−1 (5.4 mL decoction equal to 10.8 g crude drug) body weight. The blood samples were collected from orbital vein before dose and 0.17, 0.33, 0.67, 1, 2, 3, 4, 6, 8, 10, 12, and 24 after dose. The blood samples were then centrifuged at 3500 rpm (1274× g) for 15 min at 4 °C. The samples were stored at −80 °C. Data analysis was performed by Drug and Statistics (DAS) 2.0 software (Mathematical Pharmacology Professional Committee of China, Shanghai, China).

Data set [2] in a line: Stability of analytes in rat plasma under storage conditions. It is filed as in vitro ADME. On the procedure: The selectivity was assessed by analyzing the chromatograms of blank plasma of six different rats, a blank plasma with magnoflorine, α-allocryptopine, skimmianine and IS, and a plasma after dose. The linearity was determined by plotting the peak areas ratios (y) of each analyte to IS against the concentrations, and evaluated by least-squares linear regression. The lower limit of quantification (LLOQ) was defined as the lowest concentration point of the calibration curve (S/N > 10) with the accuracy within ±20% and precision lower than 20%. The accuracy and precision were evaluated by analyzing the six replicate QC samples on the same day (intra-day) and three consecutive days. The accuracy and precision were expressed as relative error (RE%) and relative standard deviation (RSD%), respectively. The extraction recovery was determined by comparing peak areas of the extracted QC samples with those of post-extracted spiked samples. The matrix effects was measured by calculated the analytes peak area ratios of post-extracted spiked samples to those of pure work solution. The stability was investigated by analyzing samples stability under diverse storage conditions: three freeze-thaw cycles, 8 h at 25 °C, −80 °C for 40 days and in autosampler for 24 h.

Where [3] appears, read: rats, oral Z. nitidum decoction.

On to `COc1ccc2c(c1O)-c1c(O)c(OC)cc3c1[C@H](C2)[N+](C)(C)CC3` [Magnoflorine, magnoflorine], for which the AUC(0-t) in data set [1] (rat plasma, oral Z. nitidum decoction 5.4 mL kg−1, Mean ± SD, n = 6, read-out: AUC0-t) was found to be 408 ± 91.3 ng·h/mL. In addition, the AUC(0-inf) in data set [1] (rat plasma, oral Z. nitidum decoction 5.4 mL kg−1, Mean ± SD, n = 6, read-out: AUC0-∞) came out at 438 ± 106 ng·h/mL. The Cmax in data set [1] (rat plasma, oral Z. nitidum decoction 5.4 mL kg−1, Mean ± SD, n = 6, read-out: Cmax) amounted to 113 ± 18.8 ng/mL. In data set [1] (rat plasma, oral Z. nitidum decoction 5.4 mL kg−1, Mean ± SD, n = 6, read-out: T1/2 (converted)), the half-life was 194 ± 78.6 min. The Tmax in data set [1] (rat plasma, oral Z. nitidum decoction 5.4 mL kg−1, Mean ± SD, n = 6, read-out: Tmax) came to 63 ± 42.6 min. For the same molecule, the “Cmax compared with that of skimmianine” value in data set [1] (setting [3]) is reported as “about ten times higher”. Further, the “total exposure AUC0–∞ compared among the three components (in words)” value in data set [1] (setting [3]) was “the largest”. The “Stability, RE (%)” value in data set [2] (rat, 5 ng/mL) is −10.00%; in data set [2] (rat, 50 ng/mL) it was 11.03%; in data set [2] (rat, 160 ng/mL), 9.16%; in data set [2] (rat, 8 h, 5 ng/mL), −5.14%; in data set [2] (rat, 8 h, 50 ng/mL), 6.87%; in data set [2] (rat, 8 h, 160 ng/mL) it was 5.74%. In addition, the “Stability, RE (%)” value is on record as −5.59% in data set [2] (rat, 24 h, 5 ng/mL); 9.24% in data set [2] (rat, 24 h, 50 ng/mL); 4.61% in data set [2] (rat, 24 h, 160 ng/mL); 10.17% in data set [2] (rat, 40 days, 5 ng/mL); −8.92% in data set [2] (rat, 40 days, 50 ng/mL); 5.74% in data set [2] (rat, 40 days, 160 ng/mL).

`COc1ccc2c(OC)c3ccoc3nc2c1OC` [Skimmianine, skimmianine] had an AUC(0-inf) in data set [1] (rat, in vivo, po) of 17.1 ± 6.32 ng·h/mL. The molecule further had an AUC(0-t) in data set [1] (rat, in vivo, po) of 11.1 ± 2.02 ng·h/mL. Also, in data set [1] (rat, in vivo, po), the concentration peaked (Cmax) at 8.91 ± 1.89 ng/mL. In addition, the Tmax in data set [1] (rat, in vivo, po) came out at 22.8 ± 7.2 min. Further, the half-life in data set [1] (rat, in vivo, po) was 359 ± 97.2 min. Besides, the “Stability, RE (%)” value in data set [2] (rat, 1 ng/mL) is 10.43%; in data set [2] (rat, 10 ng/mL), −5.95%; in data set [2] (rat, 32 ng/mL) it was −9.01%; in data set [2] (rat, 8 h, 1 ng/mL), −9.41%; in data set [2] (rat, 8 h, 10 ng/mL), 6.62%; in data set [2] (rat, 8 h, 32 ng/mL), 9.51%. Further, the “Stability, RE (%)” value was 9.47% in data set [2] (rat, 24 h, 1 ng/mL); −4.39% in data set [2] (rat, 24 h, 10 ng/mL); −1.09% in data set [2] (rat, 24 h, 32 ng/mL); 9.69% in data set [2] (rat, 40 days, 1 ng/mL); −6.48% in data set [2] (rat, 40 days, 10 ng/mL); −4.07% in data set [2] (rat, 40 days, 32 ng/mL).

Take `COc1ccc2c(c[n+](C)c3c4cc5c(cc4ccc23)OCO5)c1OC` [chelerythrine]: the “absorption (in words)” value in data set [1] (preliminary experiment, rats, oral Z. nitidum decoction) is “poor absorption”.

On to `COc1cc2c[n+](C)c3c4cc5c(cc4ccc3c2cc1OC)OCO5` [nitidine], for which the “absorption (in words)” value in data set [1] (rat, in vivo, po) is reported as “poor absorption”.

With `COc1ccc2c(c1OC)CN(C)CCc1cc3c(cc1C(=O)C2)OCO3` [α-allocryptopine], the AUC(0-t) in data set [1] (in vivo, rat plasma, oral Z. nitidum decoction 5.4 mL kg−1, Mean ± SD, n = 6, read-out: AUC0-t) was 180 ± 96.3 ng·h/mL. The AUC(0-inf) in data set [1] (in vivo, rat plasma, oral Z. nitidum decoction 5.4 mL kg−1, Mean ± SD, n = 6, read-out: AUC0-∞) stood at 186 ± 98.7 ng·h/mL. The Cmax in data set [1] (in vivo, rat plasma, oral Z. nitidum decoction 5.4 mL kg−1, Mean ± SD, n = 6, read-out: Cmax) is 100 ± 49.9 ng/mL. In addition, the half-life in data set [1] (in vivo, rat plasma, oral Z. nitidum decoction 5.4 mL kg−1, Mean ± SD, n = 6, read-out: T1/2 (converted)) is 46.8 ± 10.2 min. Moreover, the Tmax in data set [1] (in vivo, rat plasma, oral Z. nitidum decoction 5.4 mL kg−1, Mean ± SD, n = 6, read-out: Tmax) came out at 28.2 ± 7.8 min. The “Cmax compared with that of skimmianine” value in data set [1] (setting [3]) is “about ten times higher”. In addition, the “Stability, RE (%)” value in data set [2] (rat plasma, 8 h at room temperature, 5 ng/mL, n = 6) was 12.53%; in data set [2] (rat plasma, 8 h at room temperature, 50 ng/mL, n = 6) it was −7.13%; in data set [2] (rat plasma, 8 h at room temperature, 160 ng/mL, n = 6), 3.27%; in data set [2] (rat plasma, 24 h at 4 °C, 5 ng/mL, n = 6) it was 2.99%; in data set [2] (rat plasma, 24 h at 4 °C, 50 ng/mL, n = 6) it was −6.21%; in data set [2] (rat plasma, 24 h at 4 °C, 160 ng/mL, n = 6) it was 7.75%. The “Stability, RE (%)” value is 8.59% in data set [2] (rat plasma, 40 days at −80 °C, 5 ng/mL, n = 6); −4.82% in data set [2] (rat plasma, 40 days at −80 °C, 50 ng/mL, n = 6); −6.91% in data set [2] (rat plasma, 40 days at −80 °C, 160 ng/mL, n = 6); 8.97% in data set [2] (rat plasma, three freeze-thaw cycle, 5 ng/mL, n = 6); −5.58% in data set [2] (rat plasma, three freeze-thaw cycle, 50 ng/mL, n = 6); 4.24% in data set [2] (rat plasma, three freeze-thaw cycle, 160 ng/mL, n = 6).

Source of the values: paper PMC6384758, “Profiling and Pharmacokinetic Studies of Alkaloids in Rats After Oral Administration of Zanthoxylum nitidum Decoction by UPLC-Q-TOF-MS/MS and HPLC-MS/MS” (Molecules, 2019).
